# According to ChEMBL document CHEMBL1140417, “Total and semisynthesis and in vitro studies of both enantiomers of 20-fluorocamptothecin” (Bioorg Med Chem Lett, 2005):
# Calls of active or inactive are those of the source. The rule behind the calls is not given here.
# Molecular target: T1, DNA topoisomerase 1 (Homo sapiens) (UniProt P11387)
# T1 sequence (whole entry): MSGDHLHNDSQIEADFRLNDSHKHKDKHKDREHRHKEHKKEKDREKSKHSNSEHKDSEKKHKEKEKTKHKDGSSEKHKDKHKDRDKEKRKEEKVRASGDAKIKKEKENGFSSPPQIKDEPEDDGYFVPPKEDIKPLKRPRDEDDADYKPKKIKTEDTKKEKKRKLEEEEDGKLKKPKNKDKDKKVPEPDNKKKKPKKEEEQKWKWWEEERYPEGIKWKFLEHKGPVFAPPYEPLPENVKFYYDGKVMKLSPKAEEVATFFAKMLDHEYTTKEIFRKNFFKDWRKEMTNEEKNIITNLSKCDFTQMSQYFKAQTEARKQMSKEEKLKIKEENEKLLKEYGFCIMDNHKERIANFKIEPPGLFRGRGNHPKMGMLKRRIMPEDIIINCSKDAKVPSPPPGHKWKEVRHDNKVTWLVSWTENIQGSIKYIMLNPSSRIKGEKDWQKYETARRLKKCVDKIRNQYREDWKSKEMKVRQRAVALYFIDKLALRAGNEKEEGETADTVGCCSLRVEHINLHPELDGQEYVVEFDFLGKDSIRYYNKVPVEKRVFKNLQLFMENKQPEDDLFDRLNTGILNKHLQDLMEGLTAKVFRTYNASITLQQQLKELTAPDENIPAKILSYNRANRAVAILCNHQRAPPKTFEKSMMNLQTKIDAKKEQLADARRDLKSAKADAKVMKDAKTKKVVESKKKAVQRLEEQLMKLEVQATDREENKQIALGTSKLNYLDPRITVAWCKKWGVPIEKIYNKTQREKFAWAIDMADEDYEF
# Assay: Inhibition of topoisomerase-1 at 100 uM
row,Compound,Activity
1,CC[C@]1(F)C(=O)OCc2c1cc1n(c2=O)Cc2cc3cc4c(cc3nc2-1)OCO4,inactive
2,CC[C@]1(F)C(=O)OCc2c1cc1n(c2=O)Cc2cc3ccccc3nc2-1,inactive
3,CC[C@]1(F)C(=O)OCc2c1cc1n(c2=O)Cc2c-1nc1ccc(O)cc1c2[Si](C)(C)C(C)(C)C,inactive
4,CC[C@]1(F)C(=O)OCc2c1cc1n(c2=O)Cc2cc3c4c(ccc3nc2-1)OCO4,inactive
5,CC[C@]1(F)C(=O)OCc2c1cc1n(c2=O)Cc2cc3cc(F)ccc3nc2-1,inactive
6,CC[C@@]1(F)C(=O)OCc2c1cc1n(c2=O)Cc2cc3ccccc3nc2-1,Active
